According to ChEMBL document CHEMBL4325890, “Novel tyrosyl-DNA phosphodiesterase 1 inhibitors enhance the therapeutic impact of topoteсan on in vivo tumor models” (Eur J Med Chem, 2019):

Assays:
[1] = target: T1, Tyrosyl-DNA phosphodiesterase 1 (Homo sapiens, UniProt Q9NUW8)
[2] = Oral bioavailability in rabbit at 20 mg/kg by HPLC analysis; assay type: ADME, organism-based, Oryctolagus cuniculus; settings: in vivo
[3] = target: T1, Tyrosyl-DNA phosphodiesterase 1; test: Binding affinity to recombinant human Tdp1 (149 to 608 residues) expressed in Escherichia coli BL21 (DE3) by tryptophan fluorescence quenching assay
[4] = Stability of the compound assessed as imine hydrolysis at pH 1 HCl solution incubated for 24 hrs under shaking condition; assay type: physicochemical; settings: buffer, pH 1, 24 h
[5] = target: T1, Tyrosyl-DNA phosphodiesterase 1; test: Inhibition of Tdp1 (unknown origin)
[6] = target: T1, Tyrosyl-DNA phosphodiesterase 1; remark: listed apart in the source
[7] = Cytotoxicity against human MCF7 cells after 3 days by [3H]-thymidine incorporation assay; assay type: cell-based
[8] = Cytotoxicity against mouse LLTC cells after 3 days by [3H]-thymidine incorporation assay; assay type: cell-based
[9] = Acute toxicity in ig dosed specific pathogen free CD-1 mouse; assay type: organism-based; settings: in vivo, po
[10] = Toxicity in C57BL/6 mouse implanted with C57BL mouse LLC cells assessed as state and behavioral changes at 100 mg/kg, ig administered as single dose; assay type: organism-based; settings: in vivo, po
[11] = Toxicity in C57BL/6 mouse implanted with C57BL mouse LLC cells assessed as state and behavioral changes at 100 mg/kg, ig administered as single dose in presence of topotecan; assay type: organism-based; settings: in vivo, po
[12] = Toxicity in C57BL/6 mouse implanted with C57BL mouse LLC cells assessed as death at 100 mg/kg, ig in presence of topotecan; assay type: organism-based; settings: in vivo, po
[13] = Toxicity in C57BL/6 mouse implanted with C57BL mouse LLC cells assessed as death at 100 mg/kg, ig; assay type: organism-based; settings: in vivo, po
[14] = Toxicity in C57BL/6 mouse implanted with C57BL mouse LLC cells assessed as change in body weight at 100 mg/kg, ig administered as single dose (reference value: 90%); assay type: organism-based; settings: in vivo, po
[15] = Toxicity in C57BL/6 mouse implanted with C57BL mouse LLC cells assessed as change in body weight at 100 mg/kg, ig administered as single dose in presence of topotecan (reference value: 90%); assay type: organism-based; settings: in vivo, po
[16] = system: Lewis lung carcinoma cell line; test: Cytotoxicity against C57BL mouse LLC cells implanted in C57BL/6 mouse assessed as tumor weight at 100 mg/kg, ig administered as single dose measured 17 days post transplantation (reference value: 3.3 +/- 0.28 g); assay type: organism-based; settings: in vivo, po, 408 h
[17] = system: Lewis lung carcinoma cell line; test: Potentiation of topotecan-induced anticancer activity against C57BL mouse LLC cells implanted in C57BL/6 mouse assessed as tumor weight at 100 mg/kg, ig administered as single dose measured 17 days post transplantation (reference value: 2.9 +/- 0.28 g); assay type: functional
[18] = Toxicity in C57BL/6 mouse implanted with C57BL mouse LLC cells assessed as liver index at 100 mg/kg, ig administered as single dose measured 17 days post-transplantation in presence of topotecan (reference value: 5.8 +/- 0.38%); assay type: organism-based; settings: in vivo, po, 408 h
[19] = Toxicity in C57BL/6 mouse implanted with C57BL mouse LLC cells assessed as liver index at 100 mg/kg, ig administered as single dose measured 17 days post-transplantation (reference value: 5.8 +/- 0.38%); assay type: organism-based; settings: in vivo, po, 408 h
[20] = Toxicity in C57BL/6 mouse implanted with C57BL mouse LLC cells assessed as spleen weight at 100 mg/kg, ig administered as single dose measured 17 days post-transplantation in presence of topotecan (reference value: 252 +/- 12 mg); assay type: organism-based; settings: in vivo, po, 408 h
[21] = Toxicity in C57BL/6 mouse implanted with C57BL mouse LLC cells assessed as spleen weight at 100 mg/kg, ig administered as single dose measured 17 days post-transplantation (reference value: 252 +/- 12 mg); assay type: organism-based; settings: in vivo, po, 408 h
[22] = system: Lewis lung carcinoma cell line; test: Cytotoxicity against C57BL mouse LLC cells implanted in C57BL/6 mouse assessed as effect on number of metastatic nodules in lung at 100 mg/kg, ig administered as single dose measured 17 days post transplantation by microscopic analysis; assay type: organism-based; settings: in vivo, po, 408 h
[23] = Toxicity in C57BL/6 mouse implanted with C57BL mouse LLC cells assessed as state and behavioral changes at 1.5 mg/kg, ip administered on day 4, 5, 7 and 9 post-transplantation; assay type: organism-based; settings: in vivo
[24] = Toxicity in C57BL/6 mouse implanted with C57BL mouse LLC cells assessed as death at 1.5 mg/kg, ip administered on day 4, 5, 7 and 9 post-transplantation; assay type: organism-based; settings: in vivo
[25] = Toxicity in C57BL/6 mouse implanted with C57BL mouse LLC cells assessed as change in body weight at 1.5 mg/kg, ip administered on day 4, 5, 7 and 9 post-transplantation (reference value: 90%); assay type: organism-based; settings: in vivo
[26] = Toxicity in C57BL/6 mouse implanted with C57BL mouse LLC cells assessed as liver index at 1.5 mg/kg, ip administered on day 4, 5, 7 and 9 post-transplantation measured 17 days post-transplantation (reference value: 5.8 +/- 0.38%); assay type: organism-based; settings: in vivo, 408 h
[27] = Toxicity in C57BL/6 mouse implanted with C57BL mouse LLC cells assessed as spleen weight at 1.5 mg/kg, ip administered on day 4, 5, 7 and 9 post-transplantation measured 17 days post-transplantation (reference value: 252 +/- 12 mg); assay type: organism-based; settings: in vivo, 408 h

T1 sequence (Q9NUW8 whole entry): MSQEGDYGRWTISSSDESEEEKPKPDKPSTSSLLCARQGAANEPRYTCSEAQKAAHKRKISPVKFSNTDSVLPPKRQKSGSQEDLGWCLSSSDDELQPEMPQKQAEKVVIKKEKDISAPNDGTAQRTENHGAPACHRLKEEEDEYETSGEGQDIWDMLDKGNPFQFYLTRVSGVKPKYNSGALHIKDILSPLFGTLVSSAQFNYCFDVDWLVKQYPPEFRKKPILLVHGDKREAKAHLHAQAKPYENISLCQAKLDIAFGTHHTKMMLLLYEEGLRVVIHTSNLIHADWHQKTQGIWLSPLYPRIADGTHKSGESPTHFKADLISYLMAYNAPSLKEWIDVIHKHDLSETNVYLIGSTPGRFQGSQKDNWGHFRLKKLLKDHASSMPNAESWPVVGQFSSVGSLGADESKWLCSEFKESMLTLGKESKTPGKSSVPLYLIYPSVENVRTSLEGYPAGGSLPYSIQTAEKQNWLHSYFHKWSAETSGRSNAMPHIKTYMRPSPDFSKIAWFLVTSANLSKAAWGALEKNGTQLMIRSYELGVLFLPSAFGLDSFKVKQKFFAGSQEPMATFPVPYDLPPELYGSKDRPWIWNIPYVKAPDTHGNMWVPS

| Structure (SMILES) | IC50 [1] | Kd [3] | Stability [4] | further results |
| --- | --- | --- | --- | --- |
| CC(=O)c1c([O-])c(C)c([O-])c2c1OC1=CC(=O)C(C(C)=O)C(=O)[C@@]12C.[Na+].[Na+] (stereo not given in full) |  |  |  | bioavailability [2]: 78% |
| CC(=O)C1=C(O)C=C2Oc3c(C(=O)CSC#N)c(O)c(C)c(O)c3[C@@]2(C)C1=O |  |  |  | IC50 [5]: 1010 nM |
| COc1cc(/C=N/Nc2nc(-c3c(O)c(C)c(O)c4c3OC3=CC(O)=C(C(C)=O)C(=O)[C@@]34C)cs2)ccc1O | 192 nM | 44600 nM | Stable |  |
| Cc1ccc(C)n1-c1ccc(Cl)c(C(=O)O)c1 |  |  |  | IC50 [5]: 110 nM |
| CC(=O)C1=C(O)C=C2Oc3c(-c4csc(-c5cccnc5)n4)c(O)c(C)c(O)c3[C@@]2(C)C1=O | 1210 nM |  |  |  |
| CC(=O)C1=C(O)C=C2Oc3c(C(C)=O)c(O)c(C)c(O)c3[C@@]2(C)C1=O [(+)-USNIC ACID] | > 50000 nM |  |  |  |
| COc1cc(/C=C2\SC(=S)N(c3ccc([N+](=O)[O-])cc3)C2=O)cc(Br)c1O |  |  |  | IC50 [6]: 1080 nM |
| CC(=O)C1=C(O)C=C2Oc3c(-c4csc(N/N=C/c5ccccc5)n4)c(O)c(C)c(O)c3[C@@]2(C)C1=O | 172 nM | 7140 nM | Stable |  |
| C=CCNc1nc(-c2c(O)c(C)c(O)c3c2OC2=CC(O)=C(C(C)=O)C(=O)[C@@]23C)cs1 | 1250 nM |  |  |  |
| COc1ccc(/C=N/Nc2nc(-c3c(O)c(C)c(O)c4c3OC3=CC(O)=C(C(C)=O)C(=O)[C@@]34C)cs2)cc1 | 158 nM | 8650 nM | Stable |  |
| CNc1nc(-c2c(O)c(C)c(O)c3c2OC2=CC(O)=C(C(C)=O)C(=O)[C@@]23C)cs1 | 5900 nM |  |  |  |
| CC(=O)C1=C(O)C=C2Oc3c(-c4csc(N/N=C/c5ccc(Br)cc5)n4)c(O)c(C)c(O)c3[C@@]2(C)C1=O |  | 7020 nM | Stable | CC50 at 72 h [7]: 1690 nM; CC50 at 72 h [8]: 1670 nM; LD50 [9]: > 5000 mg/kg; Activity [10]: Non-Toxic; Activity [11]: Non-Toxic; Activity [12]: Non-Toxic; Activity [13]: Non-Toxic; Activity [14]: 88.2%; Activity [15]: 89.7%; Activity [16]: 3.3 g; Activity [17]: 1.4 g; Activity [18]: 6.5%; Activity [19]: 6%; Activity [20]: 326 mg; Activity [21]: 281 mg; Activity [22]: Non-Toxic |
| CC(C)=CCCC(C)CCNC1C2CC3CC(C2)CC1C3 (stereo not given) | 3500 nM |  |  |  |
| CC(=O)C1=C(O)C=C2Oc3c(-c4csc(N/N=C/c5cccc([N+](=O)[O-])c5)n4)c(O)c(C)c(O)c3[C@@]2(C)C1=O | 86 nM | 6200 nM | Stable |  |
| CC[C@@]1(O)C(=O)OCc2c1cc1n(c2=O)Cc2cc3c(CN(C)C)c(O)ccc3nc2-1 [TOPOTECAN] |  |  |  | Activity [23]: Non-Toxic; Activity [24]: Non-Toxic; Activity [25]: 88.1%; Activity [26]: 5.8%; Activity [27]: 260 mg |
| CC(=O)C1=C(O)C=C2Oc3c(-c4csc(N/N=C/c5ccc(F)cc5)n4)c(O)c(C)c(O)c3[C@@]2(C)C1=O | 150 nM | 35200 nM | Stable |  |

Further lines, with some results ahead:

| IC50 [1] | Kd [3] | Stability [4] | Structure (SMILES) | further results |
| --- | --- | --- | --- | --- |
| 3800 nM |  |  | CC(=O)C1=C(O)C=C2Oc3c(-c4csc(N)n4)c(O)c(C)c(O)c3[C@@]2(C)C1=O |  |
| 457 nM | 31100 nM | Stable | CC(=O)C1=C(O)C=C2Oc3c(-c4csc(N/N=C/c5ccc(O)cc5)n4)c(O)c(C)c(O)c3[C@@]2(C)C1=O |  |
| 4100 nM |  |  | CC(=O)C1=C(O)C=C2Oc3c(-c4csc(C)n4)c(O)c(C)c(O)c3[C@@]2(C)C1=O |  |
| 610 nM |  |  | CC(=O)C1=C(O)C=C2Oc3c(-c4csc(Nc5ccccc5)n4)c(O)c(C)c(O)c3[C@@]2(C)C1=O |  |
| 35 nM | 10700 nM | Stable | CC(=O)C1=C(O)C=C2Oc3c(-c4csc(N/N=C/c5ccc([N+](=O)[O-])cc5)n4)c(O)c(C)c(O)c3[C@@]2(C)C1=O |  |
| 68 nM | 9460 nM | Stable | CC(=O)C1=C(O)C=C2Oc3c(-c4csc(N/N=C/c5ccc(Cl)cc5)n4)c(O)c(C)c(O)c3[C@@]2(C)C1=O |  |
| 1120 nM |  |  | CC(=O)C1=C(O)C=C2Oc3c(-c4csc(-c5ccccc5)n4)c(O)c(C)c(O)c3[C@@]2(C)C1=O |  |
